One compound from ChEMBL document CHEMBL5321219, “Selective degradation of cellular BRD3 and BRD4-L promoted by PROTAC molecules in six cancer cell lines” (Eur J Med Chem, 2023) can be followed below.

The test system of assay [1] is MV4-11. Briefly: Antiproliferative activity against human MV4-11 cells assessed as cell growth inhibition measured after 3 days by CellTitre-Glo assay. In kind it is functional, cell-based. As to conditions: MV4-11, 72 h.
Assay [2] addresses T1, Protein cereblon/Bromodomain-containing protein 4 (Homo sapiens) (UniProt O60885+Q96SW2). The assay can be described thus: PROTAC activity at CRBN/BRD4-L in human MM1.S cells assessed as induction of protein degradation measured after 24 hrs by Western blot analysis. In kind it is cell-based. A general note: A western blot detects proteins with antibodies after separation by electrophoresis.

In assay [3] the test system is MM1.S. Briefly: Downregulation of p21 protein expression in human MM1.S cells at 0.1 to 30 nM measured after 24 hrs by Western blot analysis. In kind it is functional, cell-based. The note with it: dose 0.1-30 nM.
Assay [4] has as its target T2, Protein cereblon/Bromodomain-containing protein 3 (Homo sapiens) (UniProt Q15059+Q96SW2). Briefly: PROTAC activity at CRBN/BRD3 in human MCF7 cells assessed as induction of protein degradation measured after 24 hrs by Western blot analysis. As to conditions: dose 1-300 nM. In kind it is cell-based.
The target in assay [5] is T2, Protein cereblon/Bromodomain-containing protein 3 (Homo sapiens). Briefly: PROTAC activity at CRBN/BRD3 in human MV4-11 cells assessed as induction of protein degradation at 0.1 to 10 nM measured after 24 hrs by Western blot analysis. In kind it is cell-based. The note with it: dose 0.1-10 nM.
In assay [6] the target is T1, Protein cereblon/Bromodomain-containing protein 4 (Homo sapiens). The assay can be described thus: PROTAC activity at CRBN/BRD4-L in human HGC-27 cells assessed as induction of protein degradation measured after 24 hrs by Western blot analysis. As to conditions: dose 0.1-30 nM. In kind it is cell-based.
The target is the same in assay [7]. The assay can be described thus: PROTAC activity at CRBN/BRD4-L in human MCF7 cells assessed as induction of protein degradation measured after 24 hrs by Western blot analysis. In kind it is cell-based. As to conditions: dose 1-300 nM.
Assay [8] has the same target. Briefly: PROTAC activity at CRBN/BRD4-L in human HepG2 cells assessed as induction of protein degradation measured after 24 hrs by Western blot analysis. In kind it is cell-based. The note with it: dose 10-3000 nM.
In assay [9] the target is Protein cereblon/Bromodomain-containing protein 2 (Homo sapiens) (UniProt P25440+Q96SW2). Briefly: PROTAC activity at CRBN/BRD2 in human HeLa cells assessed as induction of protein degradation at 1 to 300 nM measured after 24 hrs by Western blot analysis. In kind it is cell-based. The note with it: dose 1-300 nM.
Sequence of Protein cereblon/Bromodomain-containing protein 2 (Homo sapiens) (P25440 whole entry, looked up): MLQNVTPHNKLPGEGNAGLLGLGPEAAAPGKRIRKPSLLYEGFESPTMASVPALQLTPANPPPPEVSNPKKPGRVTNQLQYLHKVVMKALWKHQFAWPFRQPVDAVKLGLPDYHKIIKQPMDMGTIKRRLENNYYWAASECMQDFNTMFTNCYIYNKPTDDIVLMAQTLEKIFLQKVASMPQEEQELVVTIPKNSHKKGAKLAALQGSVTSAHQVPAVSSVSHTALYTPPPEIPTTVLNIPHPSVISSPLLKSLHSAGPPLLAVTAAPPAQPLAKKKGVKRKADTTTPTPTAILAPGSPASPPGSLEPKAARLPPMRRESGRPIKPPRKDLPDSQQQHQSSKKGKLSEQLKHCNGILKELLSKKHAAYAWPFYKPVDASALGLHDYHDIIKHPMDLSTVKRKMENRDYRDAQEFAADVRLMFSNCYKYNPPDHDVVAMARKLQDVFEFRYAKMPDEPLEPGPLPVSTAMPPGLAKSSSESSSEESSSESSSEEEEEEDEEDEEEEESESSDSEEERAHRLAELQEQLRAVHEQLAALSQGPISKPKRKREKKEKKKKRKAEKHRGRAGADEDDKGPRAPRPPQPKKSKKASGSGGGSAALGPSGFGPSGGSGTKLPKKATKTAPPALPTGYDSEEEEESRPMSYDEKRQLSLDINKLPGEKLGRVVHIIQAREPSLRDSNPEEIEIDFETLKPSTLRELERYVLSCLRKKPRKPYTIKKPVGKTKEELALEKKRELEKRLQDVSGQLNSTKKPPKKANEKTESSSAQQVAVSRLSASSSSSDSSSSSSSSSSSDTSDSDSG
Sequence of Protein cereblon/Bromodomain-containing protein 2 (Homo sapiens) (Q96SW2 whole entry, looked up): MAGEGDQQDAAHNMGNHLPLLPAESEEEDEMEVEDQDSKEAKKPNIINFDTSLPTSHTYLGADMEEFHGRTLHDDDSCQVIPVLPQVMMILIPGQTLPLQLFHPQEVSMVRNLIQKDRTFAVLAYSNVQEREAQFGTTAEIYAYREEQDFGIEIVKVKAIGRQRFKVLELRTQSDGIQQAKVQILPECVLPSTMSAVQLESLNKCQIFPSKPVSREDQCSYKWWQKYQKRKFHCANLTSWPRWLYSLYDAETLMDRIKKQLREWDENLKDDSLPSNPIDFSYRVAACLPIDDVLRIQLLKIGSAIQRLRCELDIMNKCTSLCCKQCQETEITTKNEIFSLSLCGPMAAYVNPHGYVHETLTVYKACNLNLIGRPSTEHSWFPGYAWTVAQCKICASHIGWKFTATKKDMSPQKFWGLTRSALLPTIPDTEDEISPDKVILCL
Assay [10] addresses T1, Protein cereblon/Bromodomain-containing protein 4 (Homo sapiens). Briefly: PROTAC activity at CRBN/BRD4-S in human MV4-11 cells assessed as induction of protein degradation at 0.1 to 30 nM measured after 24 hrs by Western blot analysis. In kind it is cell-based. As to conditions: dose 0.1-30 nM.
The target of assay [11] is T2, Protein cereblon/Bromodomain-containing protein 3 (Homo sapiens). The assay can be described thus: PROTAC activity at CRBN/BRD3 in human MM1.S cells assessed as induction of protein degradation at 30 nM by Western blot analysis. In kind it is cell-based. The note with it: TDE = time-dependent effect.
Assay [12] deals with MM1.S. The assay can be described thus: Induction of cell cycle arrest in human MM1.S cells assessed as accumulation of cells at G1 phase at 1 nM incubated for 24 hrs by flow cytometry analysis (reference value: 56.32%). In kind it is functional. A general note: A flow cytometer gives signals particle by particle.
Assay [13] deals with MM1.S. Briefly: Induction of cell cycle arrest in human MM1.S cells assessed as accumulation of cells at G2 phase at 10 nM incubated for 24 hrs by flow cytometry analysis (reference value: 14.68%). In kind it is functional.
For assay [14], the system named is MM1.S. Briefly: Induction of cell cycle arrest in human MM1.S cells assessed as accumulation of cells at S phase at 300 nM incubated for 24 hrs by flow cytometry analysis (reference value: 22.37%). In kind it is functional.
Assay [15] concerns MM1.S. Briefly: Induction of cell cycle arrest in human MM1.S cells assessed as accumulation of cells at G2 phase at 300 nM incubated for 24 hrs by flow cytometry analysis (reference value: 14.68%). The format is functional.

As usually defined, the IC50 is the midpoint of a concentration-inhibition curve.

Active and inactive are the calls of the source. No cut-off for these calls is given here.

T2 sequence (Q15059 2-726 limits assumed): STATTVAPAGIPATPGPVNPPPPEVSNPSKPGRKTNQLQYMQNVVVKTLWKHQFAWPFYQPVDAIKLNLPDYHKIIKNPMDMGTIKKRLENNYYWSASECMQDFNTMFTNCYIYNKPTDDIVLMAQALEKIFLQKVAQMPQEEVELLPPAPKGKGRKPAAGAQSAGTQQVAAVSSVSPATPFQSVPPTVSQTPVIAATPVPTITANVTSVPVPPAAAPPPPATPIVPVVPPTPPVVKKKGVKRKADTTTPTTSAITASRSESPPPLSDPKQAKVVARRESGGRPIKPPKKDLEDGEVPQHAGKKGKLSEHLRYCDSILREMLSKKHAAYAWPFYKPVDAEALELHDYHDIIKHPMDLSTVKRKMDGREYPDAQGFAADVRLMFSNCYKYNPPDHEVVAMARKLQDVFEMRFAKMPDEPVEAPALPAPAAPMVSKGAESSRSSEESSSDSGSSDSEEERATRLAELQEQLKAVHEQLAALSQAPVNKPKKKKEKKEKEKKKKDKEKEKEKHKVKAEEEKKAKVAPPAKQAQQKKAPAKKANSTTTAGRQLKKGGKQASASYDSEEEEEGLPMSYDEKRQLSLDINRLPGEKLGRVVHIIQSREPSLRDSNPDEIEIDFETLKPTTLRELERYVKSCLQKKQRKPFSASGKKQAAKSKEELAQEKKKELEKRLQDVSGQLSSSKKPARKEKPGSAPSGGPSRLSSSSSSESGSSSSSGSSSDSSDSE
T2 sequence (Q96SW2 whole entry partner): as the sequence (Q96SW2 whole entry, looked up) above
T1 sequence (Q96SW2 whole entry, looked up, other chains not shown): as the sequence (Q96SW2 whole entry, looked up) above

With `Cc1nnc2n1-c1ccc(-c3ccc(CNCCCCc4cccc5c4CN(C4CCC(=O)NC4=O)C5=O)cc3)cc1C(Nc1ccc(Cl)cc1)CC2` (stereo not given), the IC50 in assay [1] was found to be 6.31 nM. For the same compound, the Activity entry in [2] was “Dose-Dependent Effect”; in assay [4], “Dose-Dependent Effect”; in assay [6], “Dose-Dependent Effect”; in assay [7] it was “Dose-Dependent Effect”; in assay [8], “Dose-Dependent Effect”; in assay [11] it was “Tde”. The Activity was 58.49% in [12], 17.82% in assay [13], 13.79% in [14] and 15.38% in assay [15]. For the same compound, the result in assay [3] and in assay [10] was Active. For the same compound, the result in assay [5] and in assay [9] was inactive.
